Test results: patent US10501461B2, “Tyrosine amide derivatives as Rho-kinase inhibitors” (CHIESI FARMACEUTICI S.P.A., priority 2017, dated 2019)

Assays:
Rho kinase 2 (ROCK-II) = Rho kinase 2 (ROCK-II) (Homo sapiens, UniProt O75116); assay: In vitro Rho kinase inhibitory activity assay (ADP-Glo), Rho kinase 2; type: biochemical; settings: 10 μM ATP, 25° C., expressed as range of activity
Summary of the method: (§1)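 Each kinase (ROCK1 or ROCK2) sat with compound for 30 min at 25 °C before 10 μM ATP started a 1 h reaction on 2.5 μM myelin basic protein (Tris pH 7.5, MgCl2, BSA, DTT, 1% DMSO). ADP formed was read by ADP-Glo luminescence. Dose-response IC50s were converted to Ki by Cheng-Prusoff.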

Rho kinase 1 (ROCK-I) = Rho kinase 1 (ROCK-I) (Homo sapiens, UniProt Q13464); assay: In vitro Rho kinase inhibitory activity assay (ADP-Glo), Rho kinase 1; type: biochemical; settings: 10 μM ATP, 25° C., expressed as range of activity
Sequence of Rho kinase 1 (ROCK-I) (Q13464 whole entry): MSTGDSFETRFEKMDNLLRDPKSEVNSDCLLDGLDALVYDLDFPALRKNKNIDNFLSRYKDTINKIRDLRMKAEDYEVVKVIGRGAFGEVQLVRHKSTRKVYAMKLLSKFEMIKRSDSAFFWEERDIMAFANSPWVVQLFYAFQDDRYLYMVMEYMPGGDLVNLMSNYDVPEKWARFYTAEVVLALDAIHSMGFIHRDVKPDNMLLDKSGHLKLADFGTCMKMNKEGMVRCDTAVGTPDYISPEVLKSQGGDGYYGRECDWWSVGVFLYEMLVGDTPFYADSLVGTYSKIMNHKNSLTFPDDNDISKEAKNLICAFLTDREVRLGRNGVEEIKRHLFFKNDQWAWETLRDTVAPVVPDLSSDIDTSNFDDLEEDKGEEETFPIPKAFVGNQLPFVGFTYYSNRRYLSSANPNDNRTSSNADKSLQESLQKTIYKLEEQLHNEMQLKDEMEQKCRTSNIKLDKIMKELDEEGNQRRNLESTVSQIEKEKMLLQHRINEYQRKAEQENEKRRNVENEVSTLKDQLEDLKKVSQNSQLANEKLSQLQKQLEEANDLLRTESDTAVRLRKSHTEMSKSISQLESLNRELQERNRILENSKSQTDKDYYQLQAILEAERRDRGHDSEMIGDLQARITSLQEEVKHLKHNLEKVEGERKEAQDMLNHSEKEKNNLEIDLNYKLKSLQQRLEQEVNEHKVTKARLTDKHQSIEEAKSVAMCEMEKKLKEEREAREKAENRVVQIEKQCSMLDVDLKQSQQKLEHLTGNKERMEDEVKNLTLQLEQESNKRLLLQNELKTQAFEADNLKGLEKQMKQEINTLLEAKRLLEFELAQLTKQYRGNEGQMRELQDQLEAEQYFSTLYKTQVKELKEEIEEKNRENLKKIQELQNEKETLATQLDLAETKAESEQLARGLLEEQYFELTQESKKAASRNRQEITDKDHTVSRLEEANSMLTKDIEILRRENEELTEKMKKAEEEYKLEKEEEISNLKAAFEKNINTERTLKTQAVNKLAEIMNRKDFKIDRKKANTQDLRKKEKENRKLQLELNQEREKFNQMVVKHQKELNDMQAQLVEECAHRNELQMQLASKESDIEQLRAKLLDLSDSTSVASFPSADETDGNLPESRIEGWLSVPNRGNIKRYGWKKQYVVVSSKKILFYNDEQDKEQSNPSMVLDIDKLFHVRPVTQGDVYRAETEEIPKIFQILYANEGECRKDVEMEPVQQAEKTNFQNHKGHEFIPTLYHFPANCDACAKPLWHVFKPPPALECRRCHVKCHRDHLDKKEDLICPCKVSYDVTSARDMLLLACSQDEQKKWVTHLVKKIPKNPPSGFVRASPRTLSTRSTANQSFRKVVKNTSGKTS
Summary of the method: as §1

Sequence of Rho kinase 2 (ROCK-II) (O75116 whole entry): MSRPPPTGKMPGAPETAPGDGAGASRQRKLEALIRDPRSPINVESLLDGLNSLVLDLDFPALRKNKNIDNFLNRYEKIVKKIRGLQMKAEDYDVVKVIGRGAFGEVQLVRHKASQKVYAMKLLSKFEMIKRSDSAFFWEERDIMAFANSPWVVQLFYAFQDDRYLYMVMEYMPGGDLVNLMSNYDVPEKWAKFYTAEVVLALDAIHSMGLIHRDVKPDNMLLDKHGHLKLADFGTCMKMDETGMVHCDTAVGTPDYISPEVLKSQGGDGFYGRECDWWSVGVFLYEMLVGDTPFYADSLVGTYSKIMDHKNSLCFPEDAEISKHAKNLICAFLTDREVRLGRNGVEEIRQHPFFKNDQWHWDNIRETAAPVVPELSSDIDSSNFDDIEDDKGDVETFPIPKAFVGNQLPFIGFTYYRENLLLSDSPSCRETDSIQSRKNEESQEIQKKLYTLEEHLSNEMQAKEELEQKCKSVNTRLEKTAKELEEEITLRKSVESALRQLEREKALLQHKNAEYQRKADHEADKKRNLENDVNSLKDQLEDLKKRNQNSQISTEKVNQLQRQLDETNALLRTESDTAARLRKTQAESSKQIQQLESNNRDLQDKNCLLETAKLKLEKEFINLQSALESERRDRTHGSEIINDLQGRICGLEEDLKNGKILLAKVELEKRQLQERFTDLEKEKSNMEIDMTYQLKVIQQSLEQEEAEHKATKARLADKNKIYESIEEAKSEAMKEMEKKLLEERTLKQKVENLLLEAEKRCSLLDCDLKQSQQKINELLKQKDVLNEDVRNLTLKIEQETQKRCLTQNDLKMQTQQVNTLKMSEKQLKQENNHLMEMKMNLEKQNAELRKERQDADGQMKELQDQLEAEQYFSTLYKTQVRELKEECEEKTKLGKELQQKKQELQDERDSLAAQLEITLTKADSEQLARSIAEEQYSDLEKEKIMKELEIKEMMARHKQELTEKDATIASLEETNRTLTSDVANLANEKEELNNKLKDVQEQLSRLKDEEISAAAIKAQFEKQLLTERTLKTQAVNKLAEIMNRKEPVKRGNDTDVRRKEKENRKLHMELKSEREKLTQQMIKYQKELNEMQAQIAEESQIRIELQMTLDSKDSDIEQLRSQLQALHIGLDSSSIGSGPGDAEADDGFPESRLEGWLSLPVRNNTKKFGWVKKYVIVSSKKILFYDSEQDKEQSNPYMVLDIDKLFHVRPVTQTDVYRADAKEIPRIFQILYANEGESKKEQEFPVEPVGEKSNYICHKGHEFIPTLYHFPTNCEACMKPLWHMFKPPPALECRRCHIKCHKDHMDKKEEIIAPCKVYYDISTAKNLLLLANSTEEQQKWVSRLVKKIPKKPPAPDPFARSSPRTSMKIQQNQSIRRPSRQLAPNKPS

Row | Compound | Ki (Rho kinase 2 (ROCK-II)) | Ki (Rho kinase 1 (ROCK-I))
1 | N[C@@H](Cc1ccc(Oc2ccnc3[nH]ccc23)c(F)c1)C(=O)NC1CCCCC1 [Example 146, (S)-3-(4-((1H-pyrrolo[2,3-b]pyridin-4-yl)oxy)-3-fluorophenyl)-2-amino-N-cyclohexylpropanamide] | < 3 nM | < 3 nM
2 | N[C@@H](Cc1ccc(Oc2ccnc3[nH]ccc23)c(F)c1)C(=O)Nc1ccccc1 [Example 147, (S)-3-(4-((1H-pyrrolo[2,3-b]pyridin-4-yl)oxy)-3-fluorophenyl)-2-amino-N-phenylpropanamide] | < 3 nM | 3 to 30 nM
3 | Cc1c[nH]c2nccc(Oc3ccc(C[C@@H](N)C(=O)NC4CCCCC4)cc3F)c12 [Example 148, (R)-2-amino-N-cyclohexyl-3-(3-fluoro-4-((3-methyl-1H-pyrrolo[2,3-b]pyridin-4-yl)oxy)phenyl)propanamide] | < 3 nM | < 3 nM
4 | Cc1c[nH]c2nccc(Oc3ccc(C[C@@H](N)C(=O)Nc4ccccc4)cc3F)c12 [Example 149, (R)-2-amino-3-(3-fluoro-4-((3-methyl-1H-pyrrolo[2,3-b]pyridin-4-yl)oxy)phenyl)-N-phenylpropanamide] | < 3 nM | < 3 nM
5 | CC(N)(Cc1ccc(Oc2ccnc3[nH]ccc23)cc1)C(=O)NC1CCCCC1 (stereo not drawn) [Example 150, 3-(4-((1H-pyrrolo[2,3-b]pyridin-4-yl)oxy)phenyl)-2-amino-N-cyclohexyl-2-methylpropanamide] | 3 to 30 nM | 3 to 30 nM
6 | CC(N)(Cc1ccc(Oc2ccnc3[nH]ccc23)cc1)C(=O)NC1CCOCC1 (stereo not drawn) [Example 151, 3-(4-((1H-pyrrolo[2,3-b]pyridin-4-yl)oxy)phenyl)-2-amino-2-methyl-N-(tetrahydro-2H-pyran-4-yl)propanamide] | > 30 nM | > 30 nM
7 | Cc1c[nH]c2nccc(Oc3ccc(C[C@H](N)C(=O)N4CCNCC4)cc3F)c12 [Example 152, (S)-2-amino-3-(3-fluoro-4-((3-methyl-1H-pyrrolo[2,3-b]pyridin-4-yl)oxy)phenyl)-1-(piperazin-1-yl)propan-1-one] | < 3 nM | < 3 nM
8 | Cc1c[nH]c2nccc(Oc3ccc(C[C@H](N)C(=O)N4CCN(Cc5ccnnc5)CC4)cc3F)c12 [Example 153, (S)-2-amino-3-(3-fluoro-4-((3-methyl-1H-pyrrolo[2,3-b]pyridin-4-yl)oxy)phenyl)-1-(4-(pyridazin-4-ylmethyl)piperazin-1-yl)propan-1-one] | < 3 nM | < 3 nM
9 | CSc1nccc(CN2CCN(C(=O)[C@@H](N)Cc3ccc(Oc4ccnc5[nH]cc(C)c45)c(F)c3)CC2)n1 [Example 154, (S)-2-amino-3-(3-fluoro-4-((3-methyl-1H-pyrrolo[2,3-b]pyridin-4-yl)oxy)phenyl)-1-(4-((2-(methylthio)pyrimidin-4-yl)methyl)piperazin-1-yl)propan-1-one] | < 3 nM | < 3 nM
10 | Cc1c[nH]c2nccc(Oc3ccc(C[C@H](N)C(=O)N4CCN(Cc5cnccn5)CC4)cc3F)c12 [Example 155, (S)-2-amino-3-(3-fluoro-4-((3-methyl-1H-pyrrolo[2,3-b]pyridin-4-yl)oxy)phenyl)-1-(4-(pyrazin-2-ylmethyl)piperazin-1-yl)propan-1-one] | < 3 nM | < 3 nM
11 | Cc1c[nH]c2nccc(Oc3ccc(C[C@H](N)C(=O)N4CCN(Cc5nccn5C)CC4)cc3F)c12 [Example 156, (S)-2-amino-3-(3-fluoro-4-((3-methyl-1H-pyrrolo[2,3-b]pyridin-4-yl)oxy)phenyl)-1-(4-((1-methyl-1H-imidazol-2-yl)methyl)piperazin-1-yl)propan-l-one] | < 3 nM | < 3 nM
12 | Cc1nc(CN2CCN(C(=O)[C@@H](N)Cc3ccc(Oc4ccnc5[nH]cc(C)c45)c(F)c3)CC2)cs1 [Example 157, (S)-2-amino-3-(3-fluoro-4-((3-methyl-1H-pyrrolo[2,3-b]pyridin-4-yl)oxy)phenyl)-1-(4-((2-methylthiazol-4-yl)methyl)piperazin-1-yl)propan-1-one] | < 3 nM | < 3 nM
13 | Cc1c[nH]c2nccc(Oc3ccc(C[C@H](N)C(=O)N4CCN(Cc5cncn5C)CC4)cc3F)c12 [Example 158, (S)-2-amino-3-(3-fluoro-4--((3-methyl-1H-pyrrolo[2,3-b]pyridin-4-yl)oxy)phenyl)-1-(4-((1-methyl-1H-imidazol-5-yl)methyl)piperazin-1-yl)propan-1-one] | < 3 nM | < 3 nM
14 | Cc1c[nH]c2nccc(Oc3ccc(C[C@H](N)C(=O)N4CCN(Cc5cnc6ccccc6n5)CC4)cc3F)c12 [Example 159, (S)-2-amino-3-(3-fluoro-4-((3-methyl-1H-pyrrolo[2,3-b]pyridin-4-yl)oxy)phenyl)-1-(4-(quinoxalin-2-ylmethyl)piperazin-1-yl)propan-1-one] | < 3 nM | < 3 nM
15 | Cc1c[nH]c2nccc(Oc3ccc(C[C@H](N)C(=O)N4CCN(Cc5ccc(OCCCN(C)C)cc5)CC4)cc3F)c12 [Example 160, (S)-2-amino-1-(4-(4-(3-(dimethylamino)propoxy)benzyl)piperazin-1-yl)-3-(3-fluoro-4-((3-methyl-1H-pyrrolo[2,3-b]pyridin-4-yl)oxy)phenyl)propan-1-one] | < 3 nM | < 3 nM
16 | Cc1c[nH]c2nccc(Oc3ccc(C[C@H](N)C(=O)N4CCN(CC5CCN(S(C)(=O)=O)CC5)CC4)cc3F)c12 [Example 161, (S)-2-amino-3-(3-fluoro-4-((3-methyl-1H-pyrrolo[2,3-b]pyridin-4-yl)oxy)phenyl)-1-(4-((1-(methylsulfonyl)piperidin-4-yl)methyl)piperazin-1-yl)propan-1-one] | < 3 nM | < 3 nM
17 | Cc1c[nH]c2nccc(Oc3ccc(C[C@H](N)C(=O)N4CCN(Cc5cncnc5)CC4)cc3F)c12 [Example 162, (S)-2-amino-3-(3-fluoro-4-((3-methyl-1H-pyrrolo[2,3-b]pyridin-4-yl)oxy)phenyl)-1-(4-(pyrimidin-5-ylmethyl)piperazin-1-yl)propan-1-one] | < 3 nM | < 3 nM
18 | Cc1c[nH]c2nccc(Oc3ccc(C[C@H](N)C(=O)N4CCN(Cc5cnn(C)c5)CC4)cc3F)c12 [Example 163, (S)-2-amino-3-(3-fluoro-4-((3-methyl-1H-pyrrolo[2,3-b]pyridin-4-yl)oxy)phenyl)-1-(4-((1-methyl-1H-pyrazol-4-yl)methyl)piperazin-1-yl)propan-1-one] | < 3 nM | < 3 nM
19 | Cc1c[nH]c2nccc(Oc3ccc(C[C@H](N)C(=O)N4CCN(Cc5csnn5)CC4)cc3F)c12 [Example 164, (S)-1-(4-((1,2,3-thiadiazol-4-yl)methyl)piperazin-1-yl)-2-amino-3-(3-fluoro-4-((3-methyl-1H-pyrrolo[2,3-b]pyridin-4-yl)oxy)phenyl)propan-1-one] | < 3 nM | < 3 nM
20 | CNC(=O)c1cccc(CN2CCN(C(=O)[C@@H](N)Cc3ccc(Oc4ccnc5[nH]cc(C)c45)c(F)c3)CC2)c1 [Example 165, (S)-3-((4-(2-amino-3-(3-fluoro-4-((3-methyl-1H-pyrrolo[2,3-b]pyridin-4-yl)oxy)phenyl)propanoyl)piperazin-1-yl)methyl)-N-methylbenzamide] | < 3 nM | < 3 nM
21 | CNC(=O)c1ccc(CN2CCN(C(=O)[C@@H](N)Cc3ccc(Oc4ccnc5[nH]cc(C)c45)c(F)c3)CC2)o1 [Example 166, (S)-5-((4-(2-amino-3-(3-fluoro-4-((3-methyl-1H-pyrrolo[2,3-b]pyridin-4-yl)oxy)phenyl)propanoyl)piperazin-1-yl)methyl)-N-methylfuran-2-carboxamide] | < 3 nM | < 3 nM
22 | Cc1c[nH]c2nccc(Oc3ccc(C[C@H](N)C(=O)N4CCN(C(=O)c5ccccc5)CC4)cc3F)c12 [Example 167, (S)-2-amino-1-(4-benzoylpiperazin-1-yl)-3-(3-fluoro-4-((3-methyl-1H-pyrrolo[2,3-b]pyridin-4-yl)oxy)phenyl)propan-1-one] | < 3 nM | < 3 nM
23 | Cc1c[nH]c2nccc(Oc3ccc(C[C@H](N)C(=O)N4CCN(C(=O)C5CCCCC5)CC4)cc3F)c12 [Example 168, (S)-2-amino-1-(4-(cyclohexanecarbonyl)piperazin-1-yl)-3-(3-fluoro-4-((3-methyl-1H-pyrrolo[2,3-b]pyridin-4-yl)oxy)phenyl)propan-1-one] | < 3 nM | < 3 nM
24 | Cc1c[nH]c2nccc(Oc3ccc(C[C@H](N)C(=O)N4CCN(C(=O)Cc5ccccc5)CC4)cc3F)c12 [Example 169, (S)-2-amino-3-(3-fluoro-4-((3-methyl-1H-pyrrolo[2,3-b]pyridin-4-yl)oxy)phenyl)-1-(4-(2-phenylacetyl-)piperazin-1-yl)propan-1-one] | < 3 nM | < 3 nM
25 | Cc1c[nH]c2nccc(Oc3ccc(C[C@H](N)C(=O)N4CCN(C(=O)C5CC5)CC4)cc3F)c12 [Example 170, (S)-2-amino-1-(4-(cyclopropanecarbonyl)piperazin-1-yl)-3-(3-fluoro-4-((3-methyl-1H-pyrrolo[2,3-b]pyridin-4-yl)oxy)phenyl)propan-1-one] | < 3 nM | < 3 nM
26 | Cc1c[nH]c2nccc(Oc3ccc(C[C@H](N)C(=O)N4CCN(C(=O)C5CCN(C)CC5)CC4)cc3F)c12 [Example 171, (S)-2-amino-3-(3-fluoro-4-((3-methyl-1H-pyrrolo[2,3-b]pyridin-4-yl)oxy)phenyl)-1-(4-(1-methylpiperidine-4-carbonyl)piperazin-1-yl)propan-1-one] | 3 to 30 nM | 3 to 30 nM
27 | Cc1c[nH]c2nccc(Oc3ccc(C[C@H](N)C(=O)N4CCN(C(=O)c5ccc(CN(C)C)cc5)CC4)cc3F)c12 [Example 172, (S)-2-amino-1-(4-(4-((dimethylamino)methyl)benzoyl)piperazin-1-yl)-3-(3-fluoro-4-((3-methyl-1H-pyrrolo[2,3-b]pyridin-4-yl)oxy)phenyl)propan-1-one] | < 3 nM | < 3 nM
